From patent US20060281806A1, “Treatment and inhibition of disease conditions using flexible heteroarotinoids” (priority 2005, published 2006)
“Also recorded” adds a separate entry of the source.

How the values were obtained:
[1] = Alanine aminotransferase (ALT) activity in plasma of mice; format: in vivo, mouse; settings: end of treatment, 10 mg/kg/day by gavage
Method: At the end of the treatment period, blood was drawn from each animal. Plasma was separated by centrifugation and stored at −70° C. The activity of ALT was determined in aliquots of plasma by standard spectrophotometric enzymatic techniques which are based on the reduction of pyruvate by lactate dehydrogenase (28). The method measures NADH disappearance with time of incubation at 37° C. The activities are expressed as mm/L/min. Two different amounts of plasma were used in each assay to assure measurement of the maximum rate.

[2] = tested on: ovarian carcinoma organotypic cultures; assay: Organotypic culture model of ovarian tumors; format: cell-based, human; settings: 1 μM retinoid in media; 3, 7 or 14 days
Method: FIG. 17. Retinoid effects on ovarian carcinoma organotypic cultures. Organotypic cultures of OVCAR-3 (A, B, E, F, I and J), Caov-3 (C and G), SK-OV-3 (D and H), and O2 (K and L) were grown in the absence (−, top row and K) or presence (+, middle row and I, J and L) of retinoid HetA4 at a concentration of 1 μM in the media. All sections were stained with H&E except for I, which was stained with PAS to detect glycoproteins and glandular differentiantion, and J, which was stained with the TUNEL assay to detect apoptosis. All magnifications are 40×.
To test our hypotheses, we evaluated the effects of clinically achievable concentrations of 4-HPR and Flex-Hets on growth, differentiation and apoptosis in ovarian tissue. A series of compounds with a variety of receptor activation profiles were evaluated. In order to evaluate therapeutic effects, we developed an organotypic culture model of ovarian tumors by growing established cell lines and primary cultures inside collagen gels. Monolayer cultures of cells are not accurate representations of in vivo tissue because they lack the types of interactions that cells have with other cells and with the extracellular matrix in vivo. These interactions are known to influence gene expression and thus the constitution and behavior of cells. In our organotypic model, the growth of tumor cells inside the collagen allows a representation of tumors that have invaded stromal tissue. In the presence of fibroblasts, established cell lines and primary cultures of ovarian cancer formed colonies inside the collagen, while normal or benign ovarian epithelial cells remained as single cells inside the collagen. Human ovarian cancer cell lines (OVCAR-3, Caov-3, SK-OV-3, A2780, UCI 101) and primary human cultures (borderline ovarian tumor (O1), serous papillary tumor (O2), benign ovarian cyst (O3)) were cultured inside and on top of a collagen gel seeded with 3T3 fibroblasts for one week. After further incubation in the presence or absence of 1 μM retinoid (media concentration) for 3, 7 or 14 days, cultures were fixed and sectioned for immunohistochemical analysis.

OVCAR-3 xenograft tumors = assay: OVCAR-3 xenograft tumor animal model, tumor growth; format: in vivo, mouse; settings: 10 mg/kg/day by gavage, 5 days/week, 4 weeks; t-test on day 29
Method: Groups of 5 mice bearing OVCAR-3 xenografted tumors were gavaged daily with the indicated drugs in sesame oil (▪ closed square) or with sesame oil alone (∘ open circle). Tumor volumes were measured in 3 dimensions with calipers weekly. Each data point represents the average and standard error of the tumor volumes on the indicated treatment day relative to the tumor volume on day zero. Nu/nu mice were injected subcutaneously with one million OVCAR-3 cells and arbitrarily divided into five groups of six mice each. After three weeks of tumor growth, the animals were gavaged with sesame oil, 10 mg/kg/day 4-HPR, or the indicated Het five times per week for four weeks and the tumors were measured once per week. The tumor sizes were averaged and divided by the average size for each group on the day that treatment was initiated (day 0).
The OVCAR-3 cultures were maintained in RPMI media supplemented with 10% fetal bovine serum. All animal experimentation described in this manuscript was conducted in accord with accepted standards of humane animal care. Twenty-five female NU/NU CD-1 female mice (Charles Rivers Laboratories) were housed in a laminar flow room under sterile conditions at 83-85° F. The mice were quarantined for one week prior to the beginning of the study and were allowed access to autoclaved food (Purina 5001 mouse/rat sterilizable diet, St. Louis, Mo.) and water ad libitum. OVCAR-3 cells in log phase growth were harvested by trypsinization, resuspended in RPMI culture medium, and centrifuged at 3,000 rpm for 10 min. The pellets were resuspended in RPMI culture medium at a concentration of 7×10^6 cells/ml before implantation into mice. Animals were injected with 3.5×10^6 cells into the right scapular region with a 24-gauge needle/1 cc tuberculin syringe. Twenty-four hours after tumor implantation, animals were randomized into 5 groups of 5 animals each.
The Hets SHet50, SHetA2 and SHetA4 were synthesized and their receptor specificity determined as previously described (17,19). The 4-HPR compound was a gift from R.W. Johnson Pharmaceutical Research Institute, Raritan, N.J. All retinoids were dissolved in super refined sesame oil (Croda, Inc., Parsippany, N.J.) and stored at −80° C. Since the retinoids are light sensitive, all manipulations involving retinoids were performed under subdued lighting. […] Tumors were measured with calipers weekly, and tumor volumes were calculated using the formula: volume=length×width×height. Tumor growth was determined by the dividing the volume of the tumor at each weekly measurement by the volume on the first day of treatment. Animal weights and clinical signs of overall health status and cutaneous toxicities were recorded weekly.

[3] = women after breast cancer surgery; 200 mg per day for five years versus placebo; cited from earlier work
a variety of cell lines = settings: cited from earlier work
[4] = biological assays of efficacy; cited from earlier work
[5] = tested on: C33a human cervical cell line; assay: In vitro cytotoxicity (SRB growth inhibition) assay, C33a; format: cell-based; set-up: dose or concentration left out as unconfirmed; settings: 72 h
Method: (§1) The SHetA2, SHetA3, SHetA4, SHet50 and 9-cis-RA compounds were evaluated in 4 cervical carcinoma cell lines. The SiHa, CC-1 and C33a human cervical cell lines were maintained in Minimal Essential Media (MEM) containing Earle's salts and L-glutamine supplemented with nonessential amino acids, 1% sodium pyruvate, 10% fetal bovine serum (FBS) and antibiotic/antimycotic. The HT-3 cervical carcinoma cell line was cultured in McCoy's 5a medium supplemented with 10% FBS and antibiotic/antimycotic. Cells were inoculated into 96 well microtiter plates at densities of 1000 cells/well and incubated for 24 h prior to addition of drugs. Drugs were dissolved in dimethyl sulfoxide (DMSO) and diluted in complete medium, prior to addition to triplicate culture wells to achieve final concentrations of […]. Following drug addition, the plates were incubated for 72 h. The assay was terminated by the addition of cold TCA and the cells were stained with 0.4% sulforhodamine B (SRB) in 1% acetic acid. Bound stain was subsequently solubilized with 10 mM trizma base, and the absorbance was read on an automated plate reader at a wavelength of 560 nm. Growth inhibition was determined by dividing the average Optical Density (OD) of the triplicated treated cultures by the average OD of the triplicate control cultures treated with DMSO solvent only. This ratio was converted into a percentage by multiplying by 100. The potency (concentration required to induce half of the maximal activity—GI50) were derived from dose-response graphs generated with results from 3 to 5 individual experiments using GraphPad Software.

[6] = tested on: dorsal skin of female Skh hairless mice; assay: Topical irritancy; format: in vivo; settings: mouse, in vivo
Method: Female Skh hairless mice, 6-8 weeks old, were treated topically on the dorsal skin for 4 days over a 2-log concentration dose range with various compounds. Retinoic acid receptor-Hets were evaluated in A, while retinoic acid receptor-independent Flex-Hets were evaluated in B. Daily flaking and abrasion scores were combined to calculate a single cutaneous toxicity score for each mouse. Each treatment group consisted of 4 mice, and group averages were used to plot cutaneous toxicity against doses of the compounds.
Topical irritancy was evaluated according to published procedures (29). Briefly, female Skh hairless mice, 6-8 weeks old, were treated topically on the dorsal skin for 4 days over a 2-log concentration dose range with various compounds. Daily flaking and abrasion scores were combined to calculate a single cutaneous toxicity score for each mouse. Each treatment group consists of 4 mice, and group averages are used to plot cutaneous toxicity against dose of the retinoid compound.

[7] = tested on: human polycystic kidney disease cells; assay: 3-D gel culture model of polycystic kidney disease; format: cell-based; settings: 4μM, 3 weeks
Method: FIG. 21. Effects of Flex-Hets on formation of cysts in cultured polycystic kidney disease cells. A primary culture of polycystic kidney cells were grown inside a mixture of collagen I and matrigel and treated with prostaglandin E2 to induce cyst formation. Parallel cultures were treated with 10 micromolar SHetA3 and SHetA4.
The 3-D model of the PKD was developed as described here. Single-cell suspensions of the PCKD cell lines was re-suspended in a 4° C. solution mixture containing rat tail collagen I (Collaborative Biomedical Products, Bedford, Mass.), matrigel (Becton Dickinson) and MEM. The suspension was poured into Falcon cell culture inserts with transparent membranes containing 0.4 μm pores (Becton Dickinson, Franklin Lakes, N.J.) and placed at 37° C. Treatment of cultures was initiated after 1 day of growth and replenished with medium once in every two days. Drugs (Flex-Hets at 4 μM Conc.) and hormones (PGE2 at 25 ng/ml) were administered into the medium surrounding the insert. Untreated control cultures were grown in the same conditions as that of the treated cultures. Drug treatment was carried out for 3 weeks before their effects on growth and inhibition were evaluated.

[8] = tested on: CC-1 human cervical cell line; assay: In vitro cytotoxicity (SRB growth inhibition) assay, CC-1; format: cell-based; set-up: dose or concentration left out as unconfirmed; settings: 72 h
Method: as §1

[9] = tested on: HT-3 cervical carcinoma cell line; assay: In vitro cytotoxicity (SRB growth inhibition) assay, HT-3; format: cell-based, human; set-up: dose or concentration left out as unconfirmed; settings: 72 h
Method: as §1

[10] = tested on: SiHa human cervical cell line; assay: In vitro cytotoxicity (SRB growth inhibition) assay, SiHa; format: cell-based; set-up: dose or concentration left out as unconfirmed; settings: 72 h
Method: as §1

| Compound | ALT Activity [1] | induction of apoptosis (TUNEL) in organotypic cultures [2] | growth of xenograft tumors versus sesame oil control (OVCAR-3 xenograft tumors) | ovarian cancers developed [3] | concentration inducing differentiation (receptor-dependent) (a variety of cell lines) | potency relative to RA [4] | Efficacy: percent growth inhibition relative to the untreated control [5] | topical irritancy (cutaneous toxicity score) [6] | formation of branched tubular structures (differentiated phenotype) [7] | cyst formation ([7]; PGE2 at 25 ng/ml) | Efficacy: percent growth inhibition relative to the untreated control [8] | Efficacy: percent growth inhibition relative to the untreated control [9] | Efficacy: percent growth inhibition relative to the untreated control [10] |
| --- | --- | --- | --- | --- | --- | --- | --- | --- | --- | --- | --- | --- | --- |
| CC1=C(/C=C/C(C)=C/C=C/C(C)=C/C(=O)Nc2ccc(O)cc2)C(C)(C)CCC1 [4-HPR, N-(4-hydroxyphenyl) retinamide] | 149.7 ± 140.9 mm/liter/min | Apoptosis was induced | significantly inhibited the growth; also recorded: significantly less | statistically significantly fewer ovarian cancers | 1 µM |  |  |  |  |  |  |  |  |
| C/C(=C\c1ccc(C(=O)O)cc1)c1ccc2c(c1)C(C)(C)CCC2(C)C [TTNPB] |  |  |  |  |  | 10 fold |  |  |  |  |  |  |  |
| CCOC(=O)c1ccc(NC(=O)Nc2ccc3c(c2)C(C)(C)CC(C)(C)S3)cc1 [SHetA4] |  | Apoptosis was induced | significantly less |  |  |  | 85% | did not induce topical irritancy | induced the formation of several branched tubular structures | completely eliminated cyst formation | 59% | 76% | 67% |
